≈ marks a conversion by molar mass, not a printed value. Entries after “also recorded” stand apart in the source; their conditions may differ. Read-outs that look alike come from different tables or passages of the source.
Assays:
[1] = molecular target: S. aureus methionine aminopeptidase, MetAP (Staphylococcus aureus, UniProt P0A078); assay: MetAP biochemical assay (fluorescence intensity coupled); conditions: average of two replicates with s.d.
Description: (§1) 368 Both the S. aureus and A. baumannii UppS in vitro biochemical assay use a pyrophosphatase and Biomol
(§2) 369 Green Phosphate detection reagent to assess catalytic activity. These assays were based on previously
(§3) 370 described assays both within GSK and others11-13. Briefly, the enzyme will add up to 8 isopentyl
(§4) 371 pyrophosphate (IPP) units onto a farnesyl pyrophosphate FPP molecule, resulting in the production of 8
(§5) 372 moles of inorganic pyrophosphates per mole of substrate added. The pyrophosphate is then converted
(§6) 373 to inorganic phosphate by a pyrophosphatase, and this phosphate is detected by Biomol Green. The
(§7) 374 assay is conducted in buffer containing 100 mM Trizma pH7.5, 1 mM MgCl2, 6 mM CHAPS and 0.005% […]
(§8) 378 10 μL. The detection reagent was incubated for 20 min and 610-620 nm light was monitored by a Perkin
(§9) 379 Elmer Envision plate reader. […]
(§10) 383 Standard deviation values were calculated using the n-1 method. […]
(§11) 388 A fluorescence intensity coupled assay was used to measure the in vitro biochemical activity of S. aureus […]
(§12) 391 enzyme then digests the liberated peptide GFGF-AFC releasing the AFC causing a fluorescence increase
(§13) 392 monitored by an Envision plate reader. […]
(§14) 395 90 minute incubation with quench/detection solution, plates were read on an envision plate reader with […]
(§15) 406 A fluorescence intensity coupled assay was used to measure the in vitro biochemical activity of M. […]

[2] = tested on: S. aureus WCUH29 wild type; assay: MIC broth microdilution; type: cell-based, Staphylococcus aureus; conditions: for MIC: Staphylococcus aureus, WCUH29WILDTYPE
[3] = tested on: Klebsiella pneumoniae 1161486a ΔtolC; assay: MIC broth microdilution; type: cell-based
[4] = tested on: Haemophilus influenzae H128 ΔacrB; assay: MIC broth microdilution; type: cell-based
[5] = tested on: Acinetobacter baumannii BM4652 ΔadeABC ΔadeIJK (efflux mutant); assay: MIC broth microdilution; type: cell-based
[6] = tested on: A. baumannii BM4652 efflux mutant, pRK415 and pRK415-UppS; assay: microbe, parasite or virus in culture; type: cell-based, Acinetobacter baumannii
[7] = tested on: Acinetobacter baumannii ATCC 19606-1 ΔLpxC; assay: MIC broth microdilution; type: cell-based; conditions: ATCC19606
[8] = tested on: Escherichia coli 7623 ΔtolC; assay: MIC broth microdilution; type: cell-based
A. baumannii UppS = A. baumannii UppS (Acinetobacter baumannii, UniProt V5VCK8); assay: UppS biochemical assay (pyrophosphatase / Biomol Green); conditions: average of two replicates with s.d.
Description: as §1, §2, §3, §4, §5, §6, §7, §8, §9, §10, §11, §12, §13, §14, §15

[9] = tested on: Pseudomonas aeruginosa PA0322 Δ(mexAB-oprM) Δ(mexCD-oprJ) Δ(mexEF-oprN); assay: MIC broth microdilution; type: cell-based

Sequence of A. baumannii UppS (V5VCK8 entry or part of it): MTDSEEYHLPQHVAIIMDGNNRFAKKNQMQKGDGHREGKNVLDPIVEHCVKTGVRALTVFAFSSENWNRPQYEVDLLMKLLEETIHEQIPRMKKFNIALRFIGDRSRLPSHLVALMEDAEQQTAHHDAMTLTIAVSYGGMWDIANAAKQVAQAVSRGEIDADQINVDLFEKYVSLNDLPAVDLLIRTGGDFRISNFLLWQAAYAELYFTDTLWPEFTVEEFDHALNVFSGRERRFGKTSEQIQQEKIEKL
Sequence of S. aureus methionine aminopeptidase, MetAP (P0A078 whole entry): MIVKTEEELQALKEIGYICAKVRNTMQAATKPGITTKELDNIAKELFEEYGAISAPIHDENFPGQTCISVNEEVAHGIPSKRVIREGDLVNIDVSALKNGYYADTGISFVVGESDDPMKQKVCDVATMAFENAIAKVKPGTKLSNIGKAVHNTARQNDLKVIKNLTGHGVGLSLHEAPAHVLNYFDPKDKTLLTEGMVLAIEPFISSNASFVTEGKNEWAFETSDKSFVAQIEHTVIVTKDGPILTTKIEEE

Cc1nnc(Cn2c(C(C)Cc3ccc4c(c3)OCO4)nc3cccc(Cl)c32)[nH]1 (stereo not shown) [Compound 3]
IC50 [1]: 350 ± 10 nM
antibacterial activity ([2]; S. aureus): lacked S. aureus antibacterial activity; also recorded: lacks antibacterial activity
MIC ([2]; S. aureus WCUH29 wild type, read-out: MIC): > 128 µg/mL

CNC(=O)[C@@H](NC(=O)c1cc(Cl)c(Cl)cc1C(=O)NCc1ccc(C(C)(C)C)cc1)C(C)(C)C [Compound 5]
MIC [3]: > 128 µg/mL
MIC [4]: 1 µg/mL (≈ 1.97 µM)
MIC ([5]; A. baumannii BM652 efflux strain): > 128 µg/mL
MIC ([5]; A. baumannii BM4652 ΔadeABC ΔadeIJK efflux mutant): > 128 µg/mL
MIC ([6]; A. baumannii BM4652 efflux mutant + pRK415-UppS, 30 μg/ml polymyxin B nonapeptide): 2 µg/mL
MIC ([6]; A. baumannii BM4652 efflux mutant + pRK415, 30 μg/ml polymyxin B nonapeptide): 0.25 µg/mL
MIC ([6]; Acinetobacter baumannii, A. baumannii BM4652 efflux mutant + pRK415-UppS, 30 μg/ml polymyxin B nonapeptide): 2 µg/mL
MIC ([6]; Acinetobacter baumannii, A. baumannii BM4652 efflux mutant + pRK415, 30 μg/ml polymyxin B nonapeptide): 0.25 µg/mL
MIC ([6]; Acinetobacter baumannii, A. baumannii BM4652 efflux mutant, N/A (no plasmid), 30 μg/ml polymyxin B nonapeptide): 0.25 µg/mL
MIC ([6]; Acinetobacter baumannii, without the permeabilising agent): > 128 µg/mL
Fold MIC increase ([6]; pRK415-UppS overexpressing strain relative to parent strain, 30 μg/ml polymyxin B nonapeptide): 8 fold
MIC [2]: > 128 µg/mL
MIC [7]: < 0.125 µg/mL
MIC [8]: > 128 µg/mL
IC50 (A. baumannii UppS): 43 ± 25 nM
MIC [9]: > 128 µg/mL

— PMC5520047, “Prioritizing multiple therapeutic targets in parallel using automated DNA-encoded library screening” (Nature Communications, 2017)
